In article PMC4904354 (Journal of Cerebral Blood Flow & Metabolism, 2015):
Where two headings read alike, the source gives them in different places.

How the values were obtained:
[1] = S-ketamine challenge: plasma concentration and tolerability; assay type: in vivo, human
[2] = biological target: NMDA receptor ion-channel; details: read-out: apparent affinity value against [^3H]MK-801 (Ki); no reference given; cited from earlier work
NMDA receptor [3] = details: cited from earlier work
[4] = cited from earlier work
NMDA receptor [5] = details: cited from earlier work; remark: listed apart in the source
[6] = system: N-methyl-D-aspartate receptor; assay type: in vivo, human; details: for K1, rate constant of transport, mean (SD) / Ki, net influx rate constant, mean (SD) / VND(K1/k2), nondisplaceable distribution volume, mean (SD): 2T3k_VB model, 90 min data
[7] = Plasma metabolite analysis of [^11C]GMOM; assay type: in vivo, human; details: for parent fraction in plasma: mean ± SD, all scans N = 15
[8] = followed by prolonged modest decrease until 90 min
[9] = cerebellum, after S-ketamine 0.3 mgkg^−1 i.v., N = 6
[10] = frontal cortex, baseline, N = 9
[11] = occipital cortex, baseline, N = 9
[12] = parietal cortex, baseline, N = 9
[13] = striatum, after S-ketamine 0.3 mgkg^−1 i.v., N = 6
[14] = temporal cortex, baseline, N = 9
[15] = thalamus, after S-ketamine 0.3 mgkg^−1 i.v., N = 6
[16] = whole brain gray matter, baseline, N = 9

CN[C@]1(c2ccccc2Cl)CCCCC1=O [S-ketamine]
mean plasma level of S-ketamine during the blocking scans ([1]; 0.3 mgkg^−1 i.v., pseudo-steady state, healthy volunteers): 56.2 ngml^−1 | tolerability of the administered dose during scans ([1]; 0.3 mgkg^−1 i.v., healthy volunteers): able to tolerate | mean S-ketamine plasma concentration ([1]; at the end of the scan, six subjects, 0.3 mg kg^−1 i.v. pseudo-steady state): 38 ng/mL | Ki [2]: ~1000 nM

CSc1cccc(N(C)C(N)=Nc2cc(SCCF)ccc2Cl)c1 [[[18]F]GE-179]
Kd (NMDA receptor [3]): 2.4 nM

CSc1cccc(N(C)C(N)=Nc2cc(SCC[18F])ccc2Cl)c1 [[[18]F]GE-179]
log D7.4 ([4]; pH 7.4): 2.49 | mean parent fraction remaining in plasma (NMDA receptor [5]; at 20 min postinjection): 50% | time of peak uptake in brain TACs (NMDA receptor [5]; [8]): around 20 min

CSc1ccc(Cl)c(NC(=N)N(C)c2cccc(S[11CH3])c2)c1 [[^11C]CNS5161]
log P [4]: 1.92

CSc1cccc(N(C)C(=N)Nc2cc(SC)ccc2Cl)c1 [[^11C]CNS5161]
Kd (NMDA receptor [3]): 1.9 ± 0.3 nM

CSc1ccc(Cl)c(NC(=N)N(C)c2cccc(O[11CH3])c2)c1 [[^11C]GMOM, N-(2-chloro-5-thiomethylphenyl)-N′-(3-[^11C]methoxy-phenyl)-N′-methylguanidine]
K1, rate constant of transport, mean (SD) [6, 9]: 0.45 (0.06) min^−1 | Ki, net influx rate constant, mean (SD) [6, 9]: 0.005 (0.008) min^−1 | VND(K1/k2), nondisplaceable distribution volume, mean (SD) [6, 9]: 9.37 (0.98) | K1, rate constant of transport, mean (SD) ([6]; cerebellum, baseline, N = 9): 0.46 (0.07) min^−1 | Ki, net influx rate constant, mean (SD) ([6]; cerebellum, baseline, N = 9): 0.014 (0.010) min^−1 | VND(K1/k2), nondisplaceable distribution volume, mean (SD) ([6]; cerebellum, baseline, N = 9): 8.43 (2.02) | time of peak uptake in brain TACs [6, 8]: around 20 min | K1, rate constant of transport, mean (SD) [6, 10]: 0.48 (0.07) min^−1 | Ki, net influx rate constant, mean (SD) [6, 10]: 0.023 (0.014) min^−1 | VND(K1/k2), nondisplaceable distribution volume, mean (SD) [6, 10]: 8.54 (2.00) | K1, rate constant of transport, mean (SD) ([6]; hippocampus, baseline, N = 9): 0.36 (0.07) min^−1 | Ki, net influx rate constant, mean (SD) ([6]; hippocampus, baseline, N = 9): 0.028 (0.012) min^−1 | VND(K1/k2), nondisplaceable distribution volume, mean (SD) ([6]; hippocampus, baseline, N = 9): 7.82 (2.25) | K1, rate constant of transport, mean (SD) [6, 11]: 0.47 (0.04) min^−1 | Ki, net influx rate constant, mean (SD) [6, 11]: 0.021 (0.012) min^−1 | VND(K1/k2), nondisplaceable distribution volume, mean (SD) [6, 11]: 8.53 (1.73) | K1, rate constant of transport, mean (SD) [6, 12]: 0.46 (0.05) min^−1 | Ki, net influx rate constant, mean (SD) [6, 12]: 0.021 (0.014) min^−1 | VND(K1/k2), nondisplaceable distribution volume, mean (SD) [6, 12]: 8.81 (1.98) | K1, rate constant of transport, mean (SD) [6, 13]: 0.50 (0.08) min^−1 | Ki, net influx rate constant, mean (SD) [6, 13]: 0.007 (0.007) min^−1 | VND(K1/k2), nondisplaceable distribution volume, mean (SD) [6, 13]: 9.88 (0.86) | K1, rate constant of transport, mean (SD) ([6]; striatum, baseline, N = 9): 0.50 (0.06) min^−1 | Ki, net influx rate constant, mean (SD) ([6]; striatum, baseline, N = 9): 0.021 (0.015) min^−1 | VND(K1/k2), nondisplaceable distribution volume, mean (SD) ([6]; striatum, baseline, N = 9): 9.15 (1.85) | K1, rate constant of transport, mean (SD) [6, 14]: 0.41 (0.06) min^−1 | Ki, net influx rate constant, mean (SD) [6, 14]: 0.020 (0.012) min^−1 | VND(K1/k2), nondisplaceable distribution volume, mean (SD) [6, 14]: 8.63 (2.06) | K1, rate constant of transport, mean (SD) [6, 15]: 0.52 (0.09) min^−1 | Ki, net influx rate constant, mean (SD) [6, 15]: 0.006 (0.007) min^−1 | VND(K1/k2), nondisplaceable distribution volume, mean (SD) [6, 15]: 11.32 (1.58) | K1, rate constant of transport, mean (SD) ([6]; thalamus, baseline, N = 9): 0.50 (0.08) min^−1 | Ki, net influx rate constant, mean (SD) ([6]; thalamus, baseline, N = 9): 0.024 (0.019) min^−1 | VND(K1/k2), nondisplaceable distribution volume, mean (SD) ([6]; thalamus, baseline, N = 9): 10.14 (2.56) | K1, rate constant of transport, mean (SD) [6, 16]: 0.45 (0.05) min^−1 | Ki, net influx rate constant, mean (SD) [6, 16]: 0.021 (0.012) min^−1 | VND(K1/k2), nondisplaceable distribution volume, mean (SD) [6, 16]: 8.47 (1.88) | parent fraction in plasma ([7]; at 5 min p.i.): 0.80 ± 0.06 | mean parent fraction remaining in plasma ([7]; at 20 min postinjection): 50% | parent fraction in plasma ([7]; at 60 min p.i.): 0.21 ± 0.08 | nonpolar metabolites fraction in plasma ([7]; at 90 min p.i.): 1.5 ± 2.0% | log P [4]: 2.34

CN(C(=N)Nc1cccc2ccccc12)c1cccc(I)c1 [[^123I]CNS1261]
Kd (NMDA receptor [3]): 4.2 ± 0.4 nM
